Data set [1] deals with p16^INK4A protein in NHOK. The experiment in a line: p16^INK4A protein level in NHOK by Western blot. The settings on record: 1 nM, at any given PDL number. It counts as cell-based, human. The method, then: (§1) To investigate the expression levels of pRb and p16^INK4A proteins in NHOK and NHEK that are exposed to all trans retinoic acid, Western blot analysis (Min B. -M. et al., Int. J. Oncol., 1995, 7, 249-256) was performed using anti-mouse Rb (IFB) monoclonal antibody and anti-human p16 (C-20) polyclonal antibody (Santa Cruz Biotechnology). After probing with each of the respective antibodies, the membrane was stained with 1X Ponceau S stain for 10 minutes to reveal the total protein loading per lane.

Data set [2] concerns normal human oral keratinocytes (NHOK). The experiment in a line: NHOK proliferation rate with all-trans retinoic acid (viable cell count by trypan blue exclusion). It is filed as cell-based. The method, then: NHOK were prepared from human gingival tissue specimens (Min B. -M. et al., Int. J. Oncol., […], 7, 249-256). The tissue samples obtained from four healthy volunteers (ages ranged from 18 to 30 years) were thoroughly washed three times with calcium and magnesium-free Hanks' balanced salt solution (CMF-HBSS; GibcoBRL). In order to separate the epithelial tissue from the underlying mucosa, the tissue scruples were incubated in CMF-HBSS containing collagenase type II (1.0 mg/ml; Sigma Chemical Co.) and dispase grade II (2.4 mg/ml; Boeringer-Mannheim) for 90 min at 37° C. in 95% air and 5% carbon dioxide Primary NHOK were prepared from separated oral epithelial tissue (Min B. -M. et al., Int. J. Oncol. 1995, 7, 249-256), and cultured in keratinocyte basal medium containing 0.15 mM calcium and supplementary growth factor bullet kit (KGM; Clonetics Corp.) as described above. […]
To determine the effect of all-trans retinoic acid on cell proliferation, rapidly proliferating NHOK (PDL 18) were plated at 2×10^4 cells per well in a 24-well culture plate. […] The average number and standard deviation were calculated as the means of four independent experiments (FIG. 1a).

Data set [3] relates to telomerase activity of NHOK. The data set is described as follows: Telomerase activity of NHOK by TRAP assay. It counts as cell-based, human. To be noted: 1 nM. The method, then:
(§2) To investigate telomerase activity of NHOK and NHEK exposed to all-trans retinoic acid, the telomerase activity was determined using a TPAP-eze telomerase detection kit (Oncor Inc.), which, is based on the TRAP assay.
(§3) More specifically, the frozen cell pellet in the above example 4 was dissolved in 200 μl of 1X CHAPS buffer (composition: 10 mM Tris-HCl pH 7.5, 1 mM MgCl2; 1 mM EDTA 0.5% 3[(3-cholamidopropyl)-dimethylammonium]-1-propanesulfonate, 10% glycerol, 5 mM β-mercaptoethanol and 0.1 mM benzamidine), incubated on ice for 30 minutes; and then centrifuged at 12,000 rpm for 30 minutes at 4° C. The separated supernatant was aliquoted and frozen on dry ice for TRAP assay.
(§4) For TRAP analysis, 2 μl of cell lysate containing 1.0 μg of cellular proteins were added to 48 μl of solution including 1X TRAP reaction buffer [composition: 20 mM Tris-HCl (pH 8.3), 1.5 mM MgCl2, 63 mM KCl 0.005% Tween 20, and 1 mM EGTA], 50 μM of each of four types of deoxynucleotide triphosphates, 0.05 μg of TS primer end-labeled with 20 μCi of [γ^32-P] ATP (3000 Ci/mmol; Amersham Corp.), 1 μl of primer mix, and Taq DNA polymerase (Perkin-Elmer) 0.4 unity. […] The PCR products were run in 12.5% nondenaturing polyacrylamide gel in 1X Tris-borate EDTA for 90 minutes at 60 W. After drying the gel, the radioactive signal was detected by autoradiography.

The subject of data set [4] is pRb protein in NHOK. The experiment in a line: pRb protein level in NHOK by Western blot. It is filed as cell-based, human. The settings on record: 1 nM. The method, then: as §1
The test system of data set [5] is senescent NHOK (PDL 22). The data set is described as follows: Senescence inhibition of senescent NHOK by SA-β-gal staining. It counts as cell-based, human. To be noted: 1 nM, 21 days. The text has this:
The senescent NHOK were positively stained by β-galactosidase (Dimri G. D. et al., Proc. Nat. Acad. Sci., 1995, 92, 9363-9367). Using such properties, the inhibition against senescence of all-trans retinoic acid-treated NHOK was examined. […]
To ensure a representative count, each cell culture was divided into four equal parts and minimum two areas per each part were photographed with Olympus IMT-2 phase-contrast microscope, thus counting the cells. As the result, minimum 500 or more cells per each part were counted.
After the senescent NHOK (PDL 22) were exposed to 1, 10, or 100 nM retinoic acid for 21 days the percentage (%) of senescent cells was obtained from SA-β-gal positive cell (%) versus total cells. The average percentage (%) and standard deviation were calculated from three independent experiments.

Data set [6] is described as follows: Acute oral toxicity test of rat. To be noted: Sprague-Dawley, in vivo, 1 g/kg/15 ml.
Description: To investigate the acute oral Toxicity test: Sprague-Dawley rats aged 6 weeks are used. Two rats per group were orally administered with all-trans retinoic acid and the 0.5% methyl cellulose solutions at a dose of 1 g/kg/15 ml one time. After administration, clinical symptoms, occurrence of death and the change of weight were observed. In addition, the rats were killed after administration, dissected, and celiac intestine and thoracic were examined with the unaided eye.
In data set [7] the test system is NHOK. The experiment in a line: Mitotic capacity of NHOK through continuous subculture (PDL, SA-β-gal). It counts as cell-based, human. To be noted: 1 nM. The method, then:
(§5) At the end of each stage, the population doubling level of NHOK was calculated by the following equation 1: […]
(§6) Wherein, N: PDL, Cf: total cell numbers obtained from the end of a passage, Ci: total cell numbers of attached cells at seeding.
(§7) NOOK (PDL 15) showing rapid proliferation was cultured with 2×10^5 cell per 60-mm petri dish. In addition, NHEK (PDL 11) was cultured in the same manner as in the NHOK. The cells were divided into two groups, which were cultured in KGM containing vehicle (0.001% DMSO) or 1 nM all-trans retinoic acid until the cells reached 70% confluency, and then subcultured until they reached the postmitotic stage of cell proliferation. All-trans retinoic acid was used by dissolving it in DMSO and then diluting with KGM so as to have a final DMSO concentration of 0.001%. The PDL accumulated at the last stage of each subculture and the senescent cell numbers in the cultured NHOK and NHEK, that is to say, the percentage (%) of positive cells by SA-β-gal staining were determined. The cell pellet obtained after washing with 1X PBS was frozen at −70° C. for TRAP and Western blot analysis (see, FIGS. 3a, 3b, 3c, 4a, 4b, and 4c).

In data set [8] the test system is normal human epidermal keratinocytes (NHEK). The experiment in a line: NHEK proliferation rate with all-trans retinoic acid (viable cell count by trypan blue exclusion). It is filed as cell-based. As to the method: NHEK was prepared in the same manner as in the above example 1, except that tissue samples were taken from human foreskin tissue specimens of two healthy volunteers (ages ranged from 1 to 3 years).
To determine the effect of all-trans retinoic acid on cell proliferation, rapidly proliferating NHEK (PDL 11) were plated at 2×10^4 cell per well in a 24-well plate and cultured until their cell density reached 40% (24 hours after the plating). The cultured cells were exposed to all-trans retinoic acid containing various concentrations, 1 nM, 10 nM, 100 nM, 500 nM, 1 μM, and 5 μM and harvested after 2 or 4 days of incubation to count the number of viable cells by trypan blue exclusion. The average number and standard deviation was calculated as above same procedure (FIG. 1b).

Data set [9] has as its system p16^INK4A protein in NHEK. The data set is described as follows: p16^INK4A protein level in NHEK by Western blot. It counts as cell-based, human. The settings on record: 1 nM, PDL 13.6-17.1. As to the method: as §1
Data set [10] concerns telomerase activity of NHEK. The experiment in a line: Telomerase activity of NHEK by TRAP assay. It is filed as cell-based, human. The settings on record: 1 nM. The method, then:
as §2, §3, §4

Data set [11] relates to NHEK. The experiment in a line: Mitotic capacity of NHEK through continuous subculture (PDL, SA-β-gal). It is filed as cell-based, human. The settings on record: 1 nM. As to the method: as §5, §6, §7

Some results are limits rather than exact numbers.

In the case of `CC1=C(/C=C/C(C)=C/C=C/C(C)=C/C(=O)O)C(C)(C)CCC1` [all-trans retinoic acid], the “intracellular p16^INK4A protein level compared to the vehicle control” value in data set [1] was “significantly lower”; in data set [9], “much lower”. Besides, the “cell proliferation of NHOK, best of the test concentrations” value in [2] (1 nM, among test concentrations 1 nM to 10 μM) was “maximally enhanced”. Moreover, the “cell proliferation of NHOK compared to the vehicle control” value in data set [2] (NHOK (PDL 18), 1 or 10 nM, 2 or 4 days of incubation) is on record as “noticeably increased”. The telomerase activity result in [3] (PDL 27 and 28 (replicative senescence)) was “almost undetectable”; in data set [3] (at high PDL numbers), “maintained or slightly increased”; in [10] (PDL 24.3 and 25.1 (replicative senescence)), “hardly or almost undetected”; in data set [10] (according to the increase of PDL), “maintained”. Besides, in [4] (according to the increase of PDL (high PDL)), the “pRb protein level compared to the vehicle control” value is given as “higher levels”. Also, the “amount of pRb protein” value in [4] (early culture at PDL 18) is given as “extremely low”. Moreover, the “pRb protein level compared to the vehicle control of corresponding PDL” value in data set [4] (low PDL) is recorded as “much lower”. In data set [5], the “replicative senescence (SA-β-gal positive cells) compared to the vehicle control” value was “significantly inhibited”. The compound further had a median lethal dose (LD50) in [6] above 2000 mg/kg. For the same compound, the “upper end of the log phase of cell proliferation (PDL)” value in [7] (serial subculture from PDL 15, vehicle: until PDL 20) was 26 PDL; in data set [11] (serial subculture from PDL 10.8, vehicle: until PDL 19.8), 24.3 PDL. Besides, the “PDL at which cells ceased to proliferate” value in data set [7] (serial subculture, vehicle: PDL 22) stood at 28 PDL. Besides, the “cell proliferation of NHEK, best of the test concentrations” value in data set [8] (1 nM, among test concentrations 1 nM to 5 μM) is “maximum cell proliferation”. The “growth of NHEK” value in data set [8] (1 μM or higher) was “restrained in their growth”. In addition, the “cell proliferation of NHEK compared to the vehicle control” value in data set [8] (NHEK (PDL 11), 1 nM, 2 or 4 days of incubation) is listed as “notably increased”. The “PDL up to which cells proliferated (no further proliferation)” value in [11] (serial subculture, vehicle: PDL 20.5) came to 25.1 PDL.
